Measured values reported in patent EP2241565A1, “Aurora kinase inhibitors compounds” (Universität Leipzig, priority 2009, dated 2010).
pIC50: −log10 of the molar value. “Also recorded” adds a separate entry of the source.

Experiments:
[1] = biological target: T1, KDR (VEGFR2) (Homo sapiens, UniProt P35968); assay: RTK-Assay (ELISA, chemiluminescence); assay type: biochemical; conditions: read-out: IC50 KDR (VEGFR 2)
T1 construct: GST (N); purchased Biomol
Method: (§1) To determine the IC50 of receptor-tyrosine-kinase an assay based on the ELISA-principle using kinases from Biomol (N-terminally fused to GST), POD-coupled antibody from Calbiochem (PY20) and BM chemiluminescence ELISA substrate from Roche was followed.
In short, a white 96 wells microplate was incubated overnight with 100 µl/well of the substrate solution (poly-Glu-Tyr diluted with PBS to 100 µg/ml) at 4 °C. The solution was removed and the plate was washed twice for 2 min with PBS-T. Afterwards the kinase solution (50 µl/well)( KDR (VEGFR2), 5 ng; Flt4 (VEGFR3), 20 ng; EGFR, 5 ng; IGFR, 15 ng; FGFR, 10 ng and Tie2, 20 ng) and the inhibitor solution (25 µl/well) were added to each well. To perform positive and negative control, 5% aqueous DMSO (25 µl/well) were used instead of inhibitor solution. Addition of ATP solution (25 µl/well) started the reaction, whereas 40 mM MnCl2 solution (25 µl/well) was added to the negative control instead of ATP. After incubation under mild shaking conditions for 30 min at rt the plate was washed with PBS-T (3 x 2 min) and subsequently incubated with antibody solution (anti-Phosphotyrosine-antibody (POD-coupled) diluted 1:10.000 in PBS-T + 0,2% (m/v) BSA)(100 µl/well) for 1 h again while shaking. In the end the plate was washed with PBS-T (3x5 min) and provided with the chemiluminescence substrate (50 µl/well). After 3 min the occurring luminescence was measured using a luminometer. […] For determination of IC50 values, the relative luminescence units per second (RLU/s) were blotted against the inhibitor concentrations. In doing so each concentration measurement was done triplicate and at least 5 different inhibitor concentrations were used to determine IC50 value.
This assay is based on the ELISA-principle using kinases from Biomol (N-terminally fused to GST), POD-coupled antibody from Calbiochem (PY20) and BM chemiluminescence ELISA substrate from Roche. […]
For determination of IC50 values, the relative luminescence units per second (RLU/s) were blotted against the inhibitor concentrations. […]

[2] = biological target: T2, EGFR (Homo sapiens, UniProt P00533); assay: RTK-Assay (ELISA, chemiluminescence); assay type: biochemical
T2 construct: GST (N); purchased Biomol
T2 sequence (P00533 25-1210, species assumed): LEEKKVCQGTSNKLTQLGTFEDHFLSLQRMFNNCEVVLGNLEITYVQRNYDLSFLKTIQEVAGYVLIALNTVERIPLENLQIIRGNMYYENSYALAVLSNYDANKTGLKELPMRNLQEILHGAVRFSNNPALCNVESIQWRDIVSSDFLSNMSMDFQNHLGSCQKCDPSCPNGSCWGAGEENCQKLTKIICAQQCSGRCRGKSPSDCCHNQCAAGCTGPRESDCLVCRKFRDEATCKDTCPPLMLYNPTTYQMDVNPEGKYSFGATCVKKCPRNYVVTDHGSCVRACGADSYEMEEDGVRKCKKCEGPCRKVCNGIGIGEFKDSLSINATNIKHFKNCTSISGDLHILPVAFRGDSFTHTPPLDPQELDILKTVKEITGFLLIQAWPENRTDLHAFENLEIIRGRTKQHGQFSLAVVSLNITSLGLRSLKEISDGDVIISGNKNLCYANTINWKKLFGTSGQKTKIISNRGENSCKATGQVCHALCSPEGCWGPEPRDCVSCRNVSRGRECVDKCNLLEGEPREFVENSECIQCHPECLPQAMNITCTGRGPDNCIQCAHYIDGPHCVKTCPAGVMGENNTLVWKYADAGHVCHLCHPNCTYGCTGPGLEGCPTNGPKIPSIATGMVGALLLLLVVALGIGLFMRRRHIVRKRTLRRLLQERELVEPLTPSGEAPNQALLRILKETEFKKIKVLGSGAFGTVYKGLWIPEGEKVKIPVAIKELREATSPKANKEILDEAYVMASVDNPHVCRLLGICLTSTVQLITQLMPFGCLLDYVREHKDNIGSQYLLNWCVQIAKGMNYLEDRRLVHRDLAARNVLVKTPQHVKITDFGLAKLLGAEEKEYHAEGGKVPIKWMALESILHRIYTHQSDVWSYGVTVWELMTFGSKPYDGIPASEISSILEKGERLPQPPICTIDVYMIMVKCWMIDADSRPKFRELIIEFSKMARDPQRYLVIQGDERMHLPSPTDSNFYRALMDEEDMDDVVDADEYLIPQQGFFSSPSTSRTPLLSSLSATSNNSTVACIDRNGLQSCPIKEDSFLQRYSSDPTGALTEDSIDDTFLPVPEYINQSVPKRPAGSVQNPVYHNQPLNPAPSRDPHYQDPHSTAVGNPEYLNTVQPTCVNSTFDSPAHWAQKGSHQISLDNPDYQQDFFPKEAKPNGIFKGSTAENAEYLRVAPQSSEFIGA
Method: as §1
(§2) In short, a white 96 wells microplate was incubated overnight with 100 µl/well of the substrate solution (poly-Glu-Tyr diluted with PBS to 100 µg/ml) at 4 °C. The solution was removed and the plate was washed twice for 2 min with PBS-T. Afterwards the kinase solution (50 µl/well)( KDR (VEGFR2), 5 ng; Flt4 (VEGFR3), 20 ng; EGFR, 5 ng; IGFR, 15 ng; FGFR, 10 ng and Tie2, 20 ng) and the inhibitor solution (25 µl/well) were added to each well. To perform positive and negative control, 5% aqueous DMSO (25 µl/well) were used instead of inhibitor solution. Addition of ATP solution (25 µl/well) started the reaction, whereas 40 mM MnCl2 solution (25 µl/well) was added to the negative control instead of ATP. After incubation under mild shaking conditions for 30 min at rt the plate was washed with PBS-T (3 x 2 min) and subsequently incubated with antibody solution (anti-Phosphotyrosine-antibody (POD-coupled) diluted 1:10.000 in PBS-T + 0,2% (m/v) BSA)(100 µl/well) for 1 h again while shaking. In the end the plate was washed with PBS-T (3x5 min) and provided with the chemiluminescence substrate (50 µl/well). After 3 min the occurring luminescence was measured using a luminometer. A positive control was measured without inhibitor to determine the activity of the kinase, a negative control without inhibitor and ATP to abstract the background signal from the results. For determination of IC50 values, the relative luminescence units per second (RLU/s) were blotted against the inhibitor concentrations. In doing so each concentration measurement was done triplicate and at least 5 different inhibitor concentrations were used to determine IC50 value.
(§3) This assay is based on the ELISA-principle using kinases from Biomol (N-terminally fused to GST), POD-coupled antibody from Calbiochem (PY20) and BM chemiluminescence ELISA substrate from Roche.
(§4) Each well of a 96 well microplate (white, flat bottom, Greiner, Lumitrac600) was covered with a kinase polypeptide substrate containing glutamate and tyrosine. The substrate was incubated with a kinase, a defined inhibitor concentration and ATP. After kinase inhibitor depending phosphorylation of the substrate a POD-coupled antibody was added that selectively binds to phosphorylated tyrosine. Finally, a chemiluminescence reagent was added and light emission measured using an Orion Microplate Luminometer (Berthold).
(§5) The detected counts correlate directly with the amount of phosphorylated tyrosine and indirectly with the activity of the inhibitor.
(§6) A positive control was measured without inhibitor to determine the activity of the kinase, a negative control without inhibitor and ATP to abstract the background signal from the results. For determination of IC50 values, the relative luminescence units per second (RLU/s) were blotted against the inhibitor concentrations. In doing so each concentration measurement was done triplicate and at least 5 different inhibitor concentrations were used to determine IC50 value.
(§7) The following solutions were prepared for the receptor-tyrosine-kinase assay: - PBS (10x) 1 g KCl, 1 g KH2PO4, 40 g NaCl, 13.2 g Na2HPO4, ad 1 l H2O - PBST (1x) PBS 10x + 0,5% Tween20 → diluted 1:10 - substrate poly-Glu-Tyr 4:1 (10mg/ml in PBS) → diluted with PBS to 100µg/ml - kinase buffer 100mM HEPES, 100mM NaCl, 0.1mM Na3VO4 - kinase solution kinase buffer, kinase stock solution diluted to reach the following concentration defined in the table Table "kinase dilution" […]

[3] = biological target: T3, IGFR (Homo sapiens, UniProt P08069); assay: RTK-Assay (ELISA, chemiluminescence); assay type: biochemical
T3 construct: GST (N); purchased Biomol
T3 sequence (P08069 31-1367): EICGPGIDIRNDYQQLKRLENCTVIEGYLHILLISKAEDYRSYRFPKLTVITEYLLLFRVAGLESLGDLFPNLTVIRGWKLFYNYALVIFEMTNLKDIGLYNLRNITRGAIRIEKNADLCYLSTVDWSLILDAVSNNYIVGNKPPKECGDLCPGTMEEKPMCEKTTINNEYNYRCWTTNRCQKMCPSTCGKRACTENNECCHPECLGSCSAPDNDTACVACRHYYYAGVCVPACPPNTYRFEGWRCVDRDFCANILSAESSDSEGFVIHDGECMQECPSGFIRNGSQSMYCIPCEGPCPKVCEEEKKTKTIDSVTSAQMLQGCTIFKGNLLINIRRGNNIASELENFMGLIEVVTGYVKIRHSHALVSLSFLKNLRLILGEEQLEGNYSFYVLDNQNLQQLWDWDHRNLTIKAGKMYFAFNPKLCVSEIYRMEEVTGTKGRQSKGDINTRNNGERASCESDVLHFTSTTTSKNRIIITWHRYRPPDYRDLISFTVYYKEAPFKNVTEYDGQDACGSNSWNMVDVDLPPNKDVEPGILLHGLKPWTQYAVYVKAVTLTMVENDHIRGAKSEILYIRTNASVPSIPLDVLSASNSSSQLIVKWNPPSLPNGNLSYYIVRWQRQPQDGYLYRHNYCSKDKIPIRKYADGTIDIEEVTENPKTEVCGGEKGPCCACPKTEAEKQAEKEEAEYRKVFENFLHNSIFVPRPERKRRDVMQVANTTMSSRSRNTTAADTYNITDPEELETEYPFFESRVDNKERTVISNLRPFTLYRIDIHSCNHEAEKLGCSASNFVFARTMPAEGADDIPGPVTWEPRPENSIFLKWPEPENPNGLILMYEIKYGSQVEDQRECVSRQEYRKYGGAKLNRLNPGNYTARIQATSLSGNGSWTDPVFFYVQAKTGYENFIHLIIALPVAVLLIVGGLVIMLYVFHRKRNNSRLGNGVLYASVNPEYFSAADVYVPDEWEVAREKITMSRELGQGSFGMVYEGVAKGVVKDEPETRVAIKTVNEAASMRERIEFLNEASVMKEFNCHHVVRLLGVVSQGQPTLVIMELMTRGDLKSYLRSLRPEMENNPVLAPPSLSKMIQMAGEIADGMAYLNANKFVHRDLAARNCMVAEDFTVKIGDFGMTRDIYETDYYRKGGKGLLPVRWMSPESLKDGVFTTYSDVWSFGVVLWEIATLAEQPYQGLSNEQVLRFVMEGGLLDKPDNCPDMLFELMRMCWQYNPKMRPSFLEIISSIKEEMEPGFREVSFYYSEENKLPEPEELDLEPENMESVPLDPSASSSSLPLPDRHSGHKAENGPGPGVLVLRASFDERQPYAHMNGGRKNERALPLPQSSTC
Method: as §1, §2, §3, §4, §5, §6, §7

[4] = biological target: T4, Tie2 (Homo sapiens, UniProt Q02763); assay: RTK-Assay (ELISA, chemiluminescence); assay type: biochemical; conditions: read-out: IC50 Tie-2
T4 construct: GST (N); purchased Biomol
T4 sequence (Q02763 23-1124, species assumed): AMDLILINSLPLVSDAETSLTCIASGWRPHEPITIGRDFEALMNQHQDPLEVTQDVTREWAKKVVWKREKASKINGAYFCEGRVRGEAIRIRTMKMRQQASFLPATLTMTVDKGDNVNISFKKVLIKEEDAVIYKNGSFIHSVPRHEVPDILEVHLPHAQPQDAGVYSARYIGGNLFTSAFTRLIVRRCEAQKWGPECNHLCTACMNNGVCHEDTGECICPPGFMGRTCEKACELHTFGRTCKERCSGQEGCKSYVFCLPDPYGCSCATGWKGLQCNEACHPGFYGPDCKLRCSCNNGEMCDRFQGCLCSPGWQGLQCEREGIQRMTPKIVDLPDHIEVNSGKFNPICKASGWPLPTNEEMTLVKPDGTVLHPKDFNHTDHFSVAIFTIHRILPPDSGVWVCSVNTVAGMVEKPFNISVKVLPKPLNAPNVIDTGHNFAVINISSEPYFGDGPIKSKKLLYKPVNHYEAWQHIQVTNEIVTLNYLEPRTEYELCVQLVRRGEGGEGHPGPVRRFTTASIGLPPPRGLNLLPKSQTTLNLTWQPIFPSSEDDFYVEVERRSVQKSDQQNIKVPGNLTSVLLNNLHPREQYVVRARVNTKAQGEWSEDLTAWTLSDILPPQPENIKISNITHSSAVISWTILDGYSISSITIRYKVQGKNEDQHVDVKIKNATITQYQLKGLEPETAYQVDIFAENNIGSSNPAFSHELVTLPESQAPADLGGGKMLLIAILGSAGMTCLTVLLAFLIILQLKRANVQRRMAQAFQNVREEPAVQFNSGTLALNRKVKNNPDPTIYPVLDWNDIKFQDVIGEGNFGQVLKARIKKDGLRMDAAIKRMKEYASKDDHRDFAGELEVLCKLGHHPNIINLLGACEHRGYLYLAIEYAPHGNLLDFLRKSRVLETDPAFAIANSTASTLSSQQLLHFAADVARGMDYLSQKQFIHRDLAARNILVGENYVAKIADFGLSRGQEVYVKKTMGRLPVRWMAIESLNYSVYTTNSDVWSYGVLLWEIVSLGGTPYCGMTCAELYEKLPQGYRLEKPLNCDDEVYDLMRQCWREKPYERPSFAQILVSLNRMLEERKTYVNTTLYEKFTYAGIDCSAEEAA
Method: as §1, §2, §3, §4, §5, §6, §7

[5] = biological target: T5, Flt-4 (VEGFR3) (Homo sapiens, UniProt P35916); assay: RTK-Assay (ELISA, chemiluminescence); assay type: biochemical; conditions: read-out: IC50 Flt-4 (VEGFR 3)
T5 construct: GST (N); purchased Biomol
T5 sequence (P35916 25-1363, species assumed): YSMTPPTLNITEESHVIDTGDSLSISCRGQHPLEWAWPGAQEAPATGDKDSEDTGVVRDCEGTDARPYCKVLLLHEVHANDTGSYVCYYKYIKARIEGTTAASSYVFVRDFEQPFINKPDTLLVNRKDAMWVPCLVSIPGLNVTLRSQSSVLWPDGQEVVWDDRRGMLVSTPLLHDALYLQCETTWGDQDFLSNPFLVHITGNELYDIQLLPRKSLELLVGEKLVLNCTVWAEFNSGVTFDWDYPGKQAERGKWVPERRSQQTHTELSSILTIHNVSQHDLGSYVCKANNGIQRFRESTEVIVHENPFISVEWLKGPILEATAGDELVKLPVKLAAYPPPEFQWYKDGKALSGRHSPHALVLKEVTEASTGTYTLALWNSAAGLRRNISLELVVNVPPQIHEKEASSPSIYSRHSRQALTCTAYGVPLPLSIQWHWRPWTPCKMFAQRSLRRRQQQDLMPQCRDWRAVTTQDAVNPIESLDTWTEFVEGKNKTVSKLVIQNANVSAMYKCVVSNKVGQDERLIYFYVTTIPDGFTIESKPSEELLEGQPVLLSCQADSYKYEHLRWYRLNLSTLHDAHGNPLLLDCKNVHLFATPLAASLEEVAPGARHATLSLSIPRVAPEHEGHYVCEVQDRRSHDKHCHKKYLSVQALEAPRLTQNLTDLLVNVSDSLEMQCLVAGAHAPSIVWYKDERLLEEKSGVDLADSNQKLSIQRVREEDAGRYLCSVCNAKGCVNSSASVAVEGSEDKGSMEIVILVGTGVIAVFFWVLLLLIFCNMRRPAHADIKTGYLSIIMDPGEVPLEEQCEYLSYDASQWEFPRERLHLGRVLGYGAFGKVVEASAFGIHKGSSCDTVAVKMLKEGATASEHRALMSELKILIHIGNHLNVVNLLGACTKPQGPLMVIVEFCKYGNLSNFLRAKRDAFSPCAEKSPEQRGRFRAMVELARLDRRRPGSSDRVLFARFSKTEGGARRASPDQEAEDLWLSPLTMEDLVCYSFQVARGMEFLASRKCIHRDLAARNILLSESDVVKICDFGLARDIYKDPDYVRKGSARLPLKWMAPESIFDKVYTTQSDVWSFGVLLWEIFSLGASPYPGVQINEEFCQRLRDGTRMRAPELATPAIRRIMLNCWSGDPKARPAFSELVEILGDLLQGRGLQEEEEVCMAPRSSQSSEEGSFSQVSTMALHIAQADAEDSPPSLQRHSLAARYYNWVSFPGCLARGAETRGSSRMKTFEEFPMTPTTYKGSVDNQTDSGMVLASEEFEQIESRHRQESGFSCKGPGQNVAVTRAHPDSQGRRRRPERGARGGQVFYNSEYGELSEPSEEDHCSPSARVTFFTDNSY
Method: as §1, §2, §3, §4, §5, §6, §7

[6] = test system: hTERT-RPE1 cells; assay: Cilia disassembly assay; assay type: cell-based; conditions: pretreatment 40 µM, serum stimulation after 48 h starvation
Method: Cilia assembly and disassembly assays were performed as described in Pugacheva et al., Cell 2007, 129, 1351-1363. […] For analysis of cilia disassembly, cilia were assembled by 48 h starvation in Opti-MEM, and disassembled by incubation in DMEM-10% serum. Cells were fixed after 2 and 4 h. […] To visualize the centrosomes and the cilia, fixed cells were immunostained with anti-γ-tubulin (Sigma GTU88) and anti-acetylated-tubulin (Sigma), and DNA was stained with Hoechst.

| SMILES | pIC50 [1] | pIC50 [2] | pIC50 [3] | pIC50 [4] | pIC50 [5] | cilia disassembly [6] |
| --- | --- | --- | --- | --- | --- | --- |
| CC(C)Nc1nc(-c2ccco2)nc2ccc(C#CCO)cc12 [Compound (C), 3-(2-(Furan-2-yl)-4-(isoiproipylamino)quinazolin-6-yl)prop-2-yn-l-ol] | < 4.00 | < 4.00 | < 4.00 | < 4.00 | < 4.00 | strongly inhibited; also recorded: impaired |
| CC(C)Nc1nc(-c2ccco2)nc2ccc(/C=C/C(C)(C)O)cc12 [Compound (A), (E)-4-(2-(Furan-2-yl)-4-(isopropylamino)quinazolin-6-yl)-2-methylbut-3-en-2-ol] | – | < 4.00 | 4.38 | < 4.00 | 5.37 | – |
